Where two headings read alike, the source gives them in different places.
Tests used:
CMV = assay: Exposure–response analysis of efficacy, key secondary endpoint: CMV viremia clearance and symptom control at week 8 maintained through week 16 (SOLSTICE); type: in vivo, human
Experimental: (§1) The exposure–response analyses for maribavir were based on data collected from transplant recipients with CMV infections that were refractory to treatment with ganciclovir, valganciclovir, foscarnet, or cidofovir in the phase 3 SOLSTICE study (ClinicalTrials.gov: NCT02931539). SOLSTICE was a multicenter, open-label, active-controlled study in which patients were randomized 2:1 to receive maribavir 400 mg BID or IAT for 8 weeks, with 12 weeks of follow-up. The primary endpoint was confirmed CMV clearance at the end of week 8, and the key secondary endpoint was achievement of CMV clearance and symptom control at the end of week 8, maintained through week 16. TE CMV mutation conferring resistance to maribavir was assessed as an exploratory endpoint. Full details of the SOLSTICE study have been published previously.
(§2) Posterior Bayes parameters of the final PopPK model were used to derive rich concentration–time profiles for maribavir. Actual dosing history and factors affecting the PK of maribavir (i.e., body weight and time-varying presence of strong CYP3A4 inhibitors or strong CYP3A4 inducers) were considered in the predictions.
(§3) Data set preparation, exploration, visualization of the data and exposure-response analyses were performed using R® (version 4.0.5 for efficacy and resistance analyses; version 4.0.2 for safety analysis) with comprehensive R® archive network (CRAN) and Certara Strategic Consulting (CSC) package. Firth correction on logistic regression was done based on library “logistf”. Logistic regressions with log-linear exposure effect or Emax exposure effect were performed using NONMEM Version VII (version 7.4).
Maribavir exposure parameters (AUCss, Cmax.ss, and Ctrough.ss) were combined with the primary and key secondary efficacy endpoints, and with TE CMV mutations conferring resistance to maribavir from the SOLSTICE study. The following covariates were included in the dataset to identify potential influencing factors: transplant type (HCT, SOT); CMV DNA level (high, intermediate, low) at baseline; symptom status (symptomatic or asymptomatic) at baseline; CMV resistant at baseline (yes, no); donor (D) and recipient (R) CMV serostatus (D+/R−, D+/R+, or D−/R+, D−/R−); antilymphocyte use (yes, no); immune function status as measured by total white blood cells from hematology panel at baseline; CMV-specific CD4 + CD69 + and CD8 + CD69 + T cells from immune function assay as continuous variables at baseline; enrolling region (North America, Europe, Asia Pacific); prior use of CMV prophylaxis (yes, no); age (as a continuous parameter) and age group (12 to < 18 years; 18 to < 45 years; 45 to < 65 years; ≥65 years); sex (male, female); race and ethnicity; TE CMV maribavir-resistant mutations (yes, no); and temporal identification of maribavir resistance (no, on maribavir treatment, post-maribavir treatment).
The exposure–response analyses were performed using a logistic regression model whereby a response can be defined as 0 (non-responder) or 1 (responder). Logistic regression analyses were performed to explore potential associations with maribavir exposure and the probability of response. The logistic regression model had the following form, assuming that maribavir exposure is included in the model:1 [drawing 1]
Pi is the probability of the event in the ith patient and α is the baseline Ln (odds) of the event. The model assumes a linear exposure effect on logit scale, with the parameter α representing the intercept, while β1 represents the slope linking the exposure parameter (X1) of maribavir (AUCss, Cmax.ss, and Ctrough.ss) to the response. The statistical significance of α and β1 was tested in the logistic regression models with a p value of < 0.05, and 95% CIs were provided for each parameter. The odds ratio (OR) for β1 was derived for a specific unit increment of the PK parameter. […]

[1] = parameters: species or system human; settings: in vivo
Experimental: as §1, §2, §3
Descriptive statistics were derived for TEAEs, TE serious AEs (SAEs), and TEAEs of special interest during the 8-week treatment phase. Based on the descriptive statistics results, key TEAEs were selected for a formal exposure–response analysis, and exposure parameters of maribavir (AUCday, Cmax.day, Cavg, AUCss, and Cmax.ss) derived from the final PopPK models were merged with retained TEAE. […]

[2] = cited from earlier work
[3] = test system: Cytochrome P450 (CYP) 3A4; parameters: method as in PMID 12654667, doi:10.1016/j.bbmt.2018.12.600; settings: formation of VP44469; cited from earlier work
[4] = test system: Cytochrome P450 (CYP) 1A2; parameters: method as in PMID 12654667, doi:10.1016/j.bbmt.2018.12.600; settings: formation of VP44469; cited from earlier work
plasma proteins = test system: plasma proteins; parameters: method as in earlier work; settings: cited from earlier work
[5] = parameters: method as in PMID 38009271; settings: concurrent rifampin; cited from earlier work
[6] = key secondary endpoint, reference <0.5%

CC(C)Nc1nc2cc(Cl)c(Cl)cc2n1[C@H]1O[C@@H](CO)[C@H](O)[C@@H]1O [maribavir]
Proportion of responders, key secondary endpoint (CMV; 1st quartile of AUCss): 31%
Proportion of responders, key secondary endpoint (CMV; 2nd quartile of AUCss): 25%
Proportion of responders, key secondary endpoint (CMV; 3rd quartile of AUCss, n = 9): 16%
Proportion of responders, key secondary endpoint (CMV; 4th quartile of AUCss, n = 3): 5%
Probability of being a responder, key secondary endpoint (CMV; baseline CD8 + CD69 + cell count ≥ 2%, otherwise reference, AUCss 200 µg∙h/mL): 77.9%
Probability of being a responder, key secondary endpoint (CMV; developed TE CMV maribavir-resistant mutation, CD8 + CD69 + < 0.5%, low CMV DNA, no prior prophylaxis, AUCss 200 µg∙h/mL): 2.5%
Patients meeting key secondary endpoint (clearance and symptom control at week 8, maintained through week 16) (CMV; exposure–response population n = 231, 400 mg BID, 44 patients): 19%
Probability of being a responder, key secondary endpoint (CMV; intermediate/high CMV DNA levels, otherwise reference, AUCss 200 µg∙h/mL): 19.7%
Logistic regression Estimate (SE): Intercept (CMV; key secondary endpoint): 0.814 (0.543)
OR (95% CI): prior use of CMV prophylaxis (CMV; key secondary endpoint): 0.441 (0.191, 0.969)
OR (95% CI): treatment-emergent CMV mutation conferring resistance to maribavir (CMV; key secondary endpoint): 0.0381 (2.97×10^–4, 0.284)
OR (95% CI): AUCss of maribavir (CMV; key secondary endpoint, increment of 50 µg·h/mL): 0.740 (0.611, 0.870)
Logistic regression Estimate (SE): baseline CD8+CD69+ cell count ≥2% (CMV; [6]): 1.65 (0.552)
OR (95% CI): baseline CD8+CD69+ cell count not reported (CMV; [6]): 0.899 (0.326, 2.34)
OR (95% CI): baseline CD8+CD69+ cell count ≥0.5% to <2% (CMV; [6]): 0.594 (0.159, 1.88)
OR (95% CI): baseline CD8+CD69+ cell count ≥2% (CMV; [6]): 5.18 (1.82, 15.9)
OR (95% CI): baseline CMV DNA level intermediate/high (CMV; key secondary endpoint, reference low): 0.363 (0.129, 0.910)
Relationship between maribavir exposure (AUCss) and probability of response for the key secondary endpoint (CMV; p = 0.001): negative relationship
Probability of being a responder, key secondary endpoint (CMV; prior use of CMV prophylaxis, otherwise reference, AUCss 200 µg·h/mL): 23.0%
Probability of being a responder, key secondary endpoint (CMV; reference: no TE mutation, CD8 + CD69 + < 0.5%, low CMV DNA, no prior prophylaxis, AUCss 200 µg∙h/mL): 40.3%
Relationship between probability of TE SAE and maribavir AUCday, AUCss, Cmax.ss, and Cavg ([1]; human): Statistically significant positive relationships
Relationship between probability of fatigue and maribavir exposure PK metrics [1]: Statistically significant positive relationships
Relationship between probability of taste disturbance and Cavg of maribavir [1]: statistically significant negative relationship
Time to steady-state exposure ([2]; 400 mg BID, transplant recipients with CMV infection): ≤ 2 days
PK in patients with mild or moderate hepatic impairment [2]: unaffected
Renal excretion as share of total clearance of unchanged drug [2]: < 2%
Systemic exposure in healthy Japanese individuals compared with White individuals [2]: higher
Mean half-life ([2]; healthy volunteers): 3.0 to 4.8 h
Median time to maximum plasma concentration (Tmax) ([2]; oral administration): 1 to 3 h
Dose proportionality of PK ([2]; single doses of up to 1600 mg and multiple doses up to 2400 mg per day): dose-proportional
Mean half-life ([2]; transplant recipients): 4.3 h
Share of CYP-mediated metabolism by CYP3A4 [3]: 70–85%
Share of CYP-mediated metabolism by CYP1A2 [4]: 15–30%
Bound to plasma proteins (plasma proteins): approximately 98%
Increase in maribavir clearance [5]: 2.5 fold
Reduction in maribavir AUC [5]: 60%
Reduction in maribavir half-life [5]: 30%

From article PMC11579209, “Population pharmacokinetics and exposure–response relationships of maribavir in transplant recipients with cytomegalovirus infection” (Journal of Pharmacokinetics and Pharmacodynamics, 2024)
